Experimental data reported in US9938322B2, “β-hairpin peptidomimetics” (priority 2013, dated 2018).
*1 amine or outer side, *2 acyl side, *3 side chain or, on linkers, in order; H or OH if unused. Where a SMILES comes first, the peptide text is derived from it. [ ]: non-standard residue; d: D form. Ala(thiazol-2-yl) = N[C@@H](Cc1nccs1)C(=O)O; Oic = O=C(O)[C@@H]1C[C@@H]2CCCC[C@@H]2N1; X2 = O=C([C@H](CCNCc1ccccn1)N[*:1])[*:2]; Phe(4-F) = N[C@@H](Cc1ccc(F)cc1)C(=O)O; Pro(3S-OH) = O=C(O)[C@H]1NCC[C@@H]1O; X1 = CC(C)NC[C@H](N[*:1])C(=O)[*:2]; Orn(iPr) = CC(C)NCCC[C@H](N)C(=O)O; Cha = N[C@@H](CC1CCCCC1)C(=O)O; Chg = N[C@H](C(=O)O)C1CCCCC1; Tle = CC(C)(C)[C@H](N)C(=O)O; dDab = NCC[C@@H](N)C(=O)O; hSer = N[C@@H](CCO)C(=O)O; Orn = NCCC[C@H](N)C(=O)O; Api = NC1(C(=O)O)CCNCC1; Dab = NCC[C@H](N)C(=O)O; Nva = CCC[C@H](N)C(=O)O; Dap = NC[C@H](N)C(=O)O

System: human red blood cells (hRBC)
Assay: Hemolysis of human red blood cells
Format: cell-based
Settings: red cells of human, 1 h, 100
Experimental: Lyophilized peptides were weighed on a Microbalance (Mettler MT5) and dissolved in sterile water to a final concentration of 1 mg/ml. Stock solutions were kept at +4° C., light protected.
The peptides were tested for their hemolytic activity against human red blood cells (hRBC). Fresh hRBC were washed three times with phosphate buffered saline (PBS) and centrifuged for 10 min at 2000×g. Compounds (100 μg/ml) were incubated with 20% hRBC (v/v) for 1 h at 37° C. and shaking at 300 rpm. The final erythrocyte concentration was approximately 0.9×10^9 cells/ml. A value of 0% and 100% cell lyses, respectively, was determined by incubation of hRBC in the presence of PBS containing 0.001% acetic acid and 2.5% Triton X-100 in H2O, respectively. The samples were centrifuged, the supernatants were 8-fold diluted in PBS buffer and the optical densities (OD) were measured at 540 nm. The 100% lyses value (OD540H2O) gave an OD540 of approximately 0.5-1.0.
Percent hemolysis was calculated as follows: (OD540peptide/OD540H2O)×100%.

SMILES	Hemolysis at 100 μg/ml
C[C@@H]1NC(=O)[C@H](C(C)(C)C)NC(=O)[C@H](CCN)NC(=O)[C@H](Cc2c[nH]c3ccccc23)NC(=O)[C@H](CCN)NC(=O)[C@H](CCN)NC(=O)[C@H](CCCN)NC(=O)[C@H](CCN)NC(=O)[C@H](CC2CCCCC2)NC(=O)[C@H](CO)NC(=O)[C@H](Cc2c[nH]c3ccccc23)NC(=O)[C@@H]2CCCN2C(=O)[C@H]2CCCN2C(=O)[C@H](CO)NC1=O [Ex. 1] (cyclo(WS[Cha][Dab][Orn][Dab][Dab]W[Dab][Tle]AS[dP]P))	1%
COC[C@@H]1NC(=O)[C@H](C(C)(C)C)NC(=O)[C@H](CCN)NC(=O)[C@H](Cc2c[nH]c3ccccc23)NC(=O)[C@H](CCN)NC(=O)[C@H](CCN)NC(=O)[C@H](CCCN)NC(=O)[C@H](CCN)NC(=O)[C@H](CC2CCCCC2)NC(=O)[C@H](C)NC(=O)[C@H](Cc2c[nH]c3ccccc23)NC(=O)[C@@H]2CCCN2C(=O)[C@H]2CCCN2C(=O)[C@H](CO)NC1=O [Ex. 5] (cyclo(WA[Cha][Dab][Orn][Dab][Dab]W[Dab][Tle]S(Me)S[dP]P))	0.5%
COC[C@@H]1NC(=O)[C@H](C(C)(C)C)NC(=O)[C@H](CCN)NC(=O)[C@H](Cc2c[nH]c3ccccc23)NC(=O)[C@H](CCN)NC(=O)[C@@H](CCN)NC(=O)[C@H](CCCN)NC(=O)[C@H](CCN)NC(=O)[C@H](CC2CCCCC2)NC(=O)[C@H](CN)NC(=O)[C@H](Cc2c[nH]c3ccccc23)NC(=O)[C@@H]2CCCN2C(=O)[C@H]2CCCN2C(=O)[C@H](CO)NC1=O [Ex. 6] (cyclo(W[Dap][Cha][Dab][Orn][dDab][Dab]W[Dab][Tle]S(Me)S[dP]P))	3%
C[C@@H]1NC(=O)[C@H](C(C)(C)C)NC(=O)[C@H](CCN)NC(=O)[C@H](Cc2c[nH]c3ccccc23)NC(=O)[C@H](CCN)NC(=O)[C@@H](CCN)NC(=O)[C@H](CCCN)NC(=O)[C@H](CCN)NC(=O)[C@H](CC2CCCCC2)NC(=O)[C@H](CN)NC(=O)[C@H](Cc2c[nH]c3ccccc23)NC(=O)[C@@H]2CCCN2C(=O)[C@H]2CCCN2C(=O)[C@H](CO)NC1=O [Ex. 10] (cyclo(W[Dap][Cha][Dab][Orn][dDab][Dab]W[Dab][Tle]AS[dP]P))	3.5%
C[C@@H]1NC(=O)[C@H](C(C)(C)C)NC(=O)[C@H](CCN)NC(=O)[C@H](Cc2c[nH]c3ccccc23)NC(=O)[C@H](CCN)NC(=O)[C@@H](CCN)NC(=O)[C@H](CCCN)NC(=O)[C@H](CCNCc2ccccn2)NC(=O)[C@H](CC2CCCCC2)NC(=O)[C@H](CN)NC(=O)[C@H](Cc2c[nH]c3ccccc23)NC(=O)[C@@H]2CCCN2C(=O)[C@H]2CCCN2C(=O)[C@H](CO)NC1=O [Ex. 11] (cyclo(W[Dap][Cha][X2][Orn][dDab][Dab]W[Dab][Tle]AS[dP]P))	0%
COC[C@@H]1NC(=O)[C@H](C(C)(C)C)NC(=O)[C@H](CCN)NC(=O)[C@H](Cc2c[nH]c3ccccc23)NC(=O)[C@H](CCN)NC(=O)[C@@H](CCN)NC(=O)[C@H](CCCN)NC(=O)[C@H](CCN)NC(=O)[C@H](CC2CCCCC2)NC(=O)[C@H](C)NC(=O)[C@H](Cc2c[nH]c3ccccc23)NC(=O)[C@@H]2C[C@@H]3CCCC[C@@H]3N2C(=O)[C@H]2CCCN2C(=O)[C@H](CO)NC1=O [Ex. 54, cyclo(-Trp-Ala-Cha-Dab-Orn-^DDab-Dab-Trp-Dab-tBuGly-Ser(Me)-Ser-^DPro-Oic-)] (cyclo(A[Cha][Dab][Orn][dDab][Dab]W[Dab][Tle]S(Me)S[dP][Oic]W))	3%
CC(C)C[C@@H]1NC(=O)[C@@H]2[C@@H](O)CCN2C(=O)[C@H]2CCCN2C(=O)[C@H](CO)NC(=O)[C@H](C)NC(=O)[C@H](Cc2ccc(O)cc2)NC(=O)[C@H](CCN)NC(=O)[C@H](Cc2c[nH]c3ccccc23)NC(=O)[C@H](CCN)NC(=O)[C@@H](CCN)NC(=O)[C@H](CCCN)NC(=O)[C@H](CCN)NC(=O)[C@H](Cc2ccc(O)cc2)NC(=O)[C@H](CO)NC1=O [Ex. 55] (cyclo(LSY[Dab][Orn][dDab][Dab]W[Dab]YAS[dP][Pro(3S-OH)]))	1%
C[C@@H]1NC(=O)[C@H](C(C)(C)C)NC(=O)[C@H](CCN)NC(=O)[C@H](Cc2c[nH]c3ccccc23)NC(=O)[C@H](CCN)NC(=O)C2(CCNCC2)NC(=O)[C@H](CCCN)NC(=O)[C@H](CCN)NC(=O)[C@H](CC2CCCCC2)NC(=O)[C@H](CN)NC(=O)[C@H](Cc2c[nH]c3ccccc23)NC(=O)[C@@H]2CCCN2C(=O)[C@H]2CCCN2C(=O)[C@H](CO)NC1=O [Ex. 62] (cyclo(W[Dap][Cha][Dab][Orn][Api][Dab]W[Dab][Tle]AS[dP]P))	1%
CC(C)C[C@@H]1NC(=O)[C@@H]2CCCN2C(=O)[C@H]2CCCN2C(=O)[C@H](CO)NC(=O)[C@H](C)NC(=O)[C@H](C(C)(C)C)NC(=O)[C@H](CCN)NC(=O)[C@H](Cc2c[nH]c3ccccc23)NC(=O)[C@H](CN)NC(=O)[C@@H](CCN)NC(=O)[C@H](CCCN)NC(=O)[C@H](CCN)NC(=O)[C@H](Cc2ccc(O)cc2)NC(=O)[C@H](CO)NC1=O [Ex. 103] (cyclo(LSY[Dab][Orn][dDab][Dap]W[Dab][Tle]AS[dP]P))	1%
CCC[C@@H]1NC(=O)[C@@H]2CCCN2C(=O)[C@H]2CCCN2C(=O)[C@H](CO)NC(=O)[C@H](C)NC(=O)[C@H](C(C)(C)C)NC(=O)[C@H](CCN)NC(=O)[C@H](Cc2c[nH]c3ccccc23)NC(=O)[C@H](CCN)NC(=O)[C@@H](CCN)NC(=O)[C@H](CCCN)NC(=O)[C@H](CCN)NC(=O)[C@H](Cc2ccc(F)cc2)NC(=O)[C@H](CO)NC1=O [Ex. 104] (cyclo([Nva]S[Phe(4-F)][Dab][Orn][dDab][Dab]W[Dab][Tle]AS[dP]P))	0.5%
COC[C@@H]1NC(=O)[C@H](Cc2c[nH]c3ccccc23)NC(=O)[C@@H]2CCCN2C(=O)[C@H]2CCCN2C(=O)[C@H](CO)NC(=O)[C@H](C)NC(=O)[C@H](C(C)(C)C)NC(=O)[C@H](CCN)NC(=O)[C@H](Cc2c[nH]c3ccccc23)NC(=O)[C@H](CCN)NC(=O)[C@@H](CCN)NC(=O)[C@H](CCCN)NC(=O)[C@H](CCN)NC(=O)[C@H](CC2CCCCC2)NC1=O [compound 2] (cyclo(WS(Me)[Cha][Dab][Orn][dDab][Dab]W[Dab][Tle]AS[dP]P))	1.7%
C[C@@H]1NC(=O)[C@H](Cc2c[nH]c3ccccc23)NC(=O)[C@@H]2CCCN2C(=O)[C@H]2CCCN2C(=O)[C@H](CO)NC(=O)[C@H](C)NC(=O)[C@H](C(C)(C)C)NC(=O)[C@H](CCN)NC(=O)[C@H](Cc2c[nH]c3ccccc23)NC(=O)[C@H](CCN)NC(=O)[C@@H](CCN)NC(=O)[C@H](CCCN)NC(=O)[C@H](CCN)NC(=O)[C@H](C2CCCCC2)NC1=O [compound 3] (cyclo(WA[Chg][Dab][Orn][dDab][Dab]W[Dab][Tle]AS[dP]P))	2.5%
C[C@@H]1NC(=O)[C@H](Cc2c[nH]c3ccccc23)NC(=O)[C@@H]2CCCN2C(=O)[C@H]2CCCN2C(=O)[C@H](CO)NC(=O)[C@H](C)NC(=O)[C@H](C(C)(C)C)NC(=O)[C@H](CCN)NC(=O)[C@H](Cc2c[nH]c3ccccc23)NC(=O)[C@H](CCN)NC(=O)[C@@H](CCN)NC(=O)[C@H](CCCN)NC(=O)[C@H](CCN)NC(=O)[C@H](Cc2ccc(O)cc2)NC1=O [compound 4] (cyclo(WAY[Dab][Orn][dDab][Dab]W[Dab][Tle]AS[dP]P))	1%
C[C@@H]1NC(=O)[C@H](Cc2c[nH]c3ccccc23)NC(=O)[C@@H]2CCCN2C(=O)[C@H]2CCCN2C(=O)[C@H](CO)NC(=O)[C@H](Cc2nccs2)NC(=O)[C@H](C(C)(C)C)NC(=O)[C@H](CCN)NC(=O)[C@H](Cc2c[nH]c3ccccc23)NC(=O)[C@H](CCN)NC(=O)[C@@H](CCN)NC(=O)[C@H](CCCN)NC(=O)[C@H](CCN)NC(=O)[C@H](CC2CCCCC2)NC1=O [compound 7] (cyclo(WA[Cha][Dab][Orn][dDab][Dab]W[Dab][Tle][Ala(thiazol-2-yl)]S[dP]P))	8%
CC(C)NCCC[C@@H]1NC(=O)[C@H](CCN)NC(=O)[C@H](CC2CCCCC2)NC(=O)[C@H](CNC(C)C)NC(=O)[C@H](Cc2c[nH]c3ccccc23)NC(=O)[C@@H]2CCCN2C(=O)[C@H]2CCCN2C(=O)[C@H](CO)NC(=O)[C@H](CO)NC(=O)[C@H](C(C)(C)C)NC(=O)[C@H](CCN)NC(=O)[C@H](Cc2c[nH]c3ccccc23)NC(=O)[C@H](CCN)NC(=O)[C@@H](CCN)NC1=O [compound 8] (cyclo(W[X1][Cha][Dab][Orn(iPr)][dDab][Dab]W[Dab][Tle]SS[dP]P))	7%
CC(C)NC[C@@H]1NC(=O)[C@H](Cc2c[nH]c3ccccc23)NC(=O)[C@@H]2CCCN2C(=O)[C@H]2CCCN2C(=O)[C@H](CO)NC(=O)[C@H](C)NC(=O)[C@H](C(C)(C)C)NC(=O)[C@H](CCO)NC(=O)[C@H](Cc2c[nH]c3ccccc23)NC(=O)[C@H](CCN)NC(=O)[C@@H](CCN)NC(=O)[C@H](CCCN)NC(=O)[C@H](CCN)NC(=O)[C@H](CC2CCCCC2)NC1=O [compound 9] (cyclo(W[X1][Cha][Dab][Orn][dDab][Dab]W[hSer][Tle]AS[dP]P))	2%
C[C@@H]1NC(=O)[C@H](C(C)(C)C)NC(=O)[C@H](CCN)NC(=O)[C@H](Cc2c[nH]c3ccccc23)NC(=O)[C@H](CCN)NC(=O)[C@@H](CCN)NC(=O)[C@H](CCCN)NC(=O)[C@H](CCN)NC(=O)[C@H](CC2CCCCC2)NC(=O)[C@H](CCNCc2ccccn2)NC(=O)[C@H](Cc2c[nH]c3ccccc23)NC(=O)[C@@H]2CCCN2C(=O)[C@H]2CCCN2C(=O)[C@H](CO)NC1=O [compound 12] (cyclo(W[X2][Cha][Dab][Orn][dDab][Dab]W[Dab][Tle]AS[dP]P))	0%
